Assay [1] concerns the target recombinant GST fusion MALT1 (human MALT1) (Homo sapiens (Human), UniProt Q9UDY8). Put plainly: Evaluation of inhibition of protease activity of MALT1 (cleavage of fluorescent peptide substrate Ac-LRSR-AMC). In kind it is biochemical. The note with it: substrate Ac-LRSR-AMC 20 μmol/L, 30° C. for 80 minutes. The procedure, abridged:
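GST-tagged full-length human MALT1 from E. coli ([…]) was preincubated with compound 30 min at room temperature. Buffer: MES, 150 mM NaCl, 10% sucrose, 0.1% CHAPS, 10 mM DTT, 1 mol/L ammonium citrate. Ac-LRSR-AMC (20 μM final) was then cleaved 80 min at 30 °C; AMC fluorescence (Ex 380/Em 460) gain gave % inhibition versus no-enzyme and DMSO controls.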

Assay [2] relates to imiquimod-induced psoriasis mouse models. Put plainly: Suppressive effect on auricular hypertrophy in imiquimod-induced psoriasis mouse model. In kind it is in vivo, BALB/c male mice. The note with it: for change in the thickness of the auricle (increase): post-induction days 4 to 7, post-induction day 8 vs before induction, vehicle group 198 μm; for change in the thickness of the auricle compared to the vehicle administration group (in words): P<0.05. As for the experimental part: The guanidine derivative (I) or the pharmacologically acceptable salt thereof was evaluated for its exertion of a therapeutic effect on psoriasis, one type of autoimmune disease, in an in vivo experimental system using imiquimod-induced psoriasis mouse models in accordance with the method described in the literature (The Journal of Dermatological Science, 2014, Vol. 76, No. 2, p. 96-103). Specifically, the evaluation was conducted by verifying the suppressive effect of the compound on auricular hypertrophy by using, as an index, the thickness of the auricle increased with the progression of symptoms in imiquimod-induced psoriasis models.
Seven-week-old BALB/c male mice (Charles River Laboratories Japan, Inc.) were preliminarily bred and then used at the age of 8 weeks. To induce psoriasis-like symptoms, 5 mg/ear of Beselna Cream 5% was applied (imiquimod dose: 0.25 mg/body/day) to both the ears of each mouse once a day for 8 days from the date of initial administration of imiquimod (hereinafter, referred to as post-induction day 0) to post-induction day 7. A dosing vehicle was prepared by adding Tween 20 to a 0.5% (w/v) aqueous methylcellulose solution to attain a final concentration of 0.025% (v/v). A test compound was suspended in the dosing vehicle to prepare a drug solution. The drug solution was orally administered (dosing volume: 10 mL/kg) twice a day (a.m. and p.m.) for 4 days from post-induction days 4 to 7. The test compound used was the compound of Example 2, and groups given the compound of Example 2 were designated as Example 2 compound administration groups. A group given only the dosing vehicle in the same way as above was established as a vehicle administration group.
The thickness of the auricle before imiquimod administration (before induction) at the date of induction and the thickness of the auricle at post-induction day 8 were measured using a digital micrometer (Mitsutoyo Corp.), and the change therebetween (the thickness of the auricle at post-induction day 8—the thickness of the auricle before induction) was used as an index for drug efficacy evaluation. Statistical analysis was carried out using statistical analysis software EXSAS (ver. 7.6). As a result of studying homoscedasticity among the groups by the Bartlett's test, the variance was homogeneous. Therefore, the parametric Dunnett test (two-tailed) was carried out. As for the drug dependence of the drug efficacy of the compound of Example 2 on auricular hypertrophy, as a result of studying homoscedasticity between the vehicle group and each compound administration group by the Bartlett's test, the variance was homogeneous. Therefore, the Williams test (two-tailed) was carried out. P<0.05 was confirmed as significant difference.
The ordinate of the drawing depicts the change in the thickness of the auricle (μm), and the abscissa depicts each administration group. The term “Compound of Example 2” depicts the Example 2 compound administration groups.

Here are results for one compound from patent US10662156B2, “Guanidine derivative and medical use thereof” (Toray Industries, Inc., priority 2016, dated 2020).

Sequence of recombinant GST fusion MALT1 (human MALT1) (Q9UDY8 whole entry, the tested form may be a part): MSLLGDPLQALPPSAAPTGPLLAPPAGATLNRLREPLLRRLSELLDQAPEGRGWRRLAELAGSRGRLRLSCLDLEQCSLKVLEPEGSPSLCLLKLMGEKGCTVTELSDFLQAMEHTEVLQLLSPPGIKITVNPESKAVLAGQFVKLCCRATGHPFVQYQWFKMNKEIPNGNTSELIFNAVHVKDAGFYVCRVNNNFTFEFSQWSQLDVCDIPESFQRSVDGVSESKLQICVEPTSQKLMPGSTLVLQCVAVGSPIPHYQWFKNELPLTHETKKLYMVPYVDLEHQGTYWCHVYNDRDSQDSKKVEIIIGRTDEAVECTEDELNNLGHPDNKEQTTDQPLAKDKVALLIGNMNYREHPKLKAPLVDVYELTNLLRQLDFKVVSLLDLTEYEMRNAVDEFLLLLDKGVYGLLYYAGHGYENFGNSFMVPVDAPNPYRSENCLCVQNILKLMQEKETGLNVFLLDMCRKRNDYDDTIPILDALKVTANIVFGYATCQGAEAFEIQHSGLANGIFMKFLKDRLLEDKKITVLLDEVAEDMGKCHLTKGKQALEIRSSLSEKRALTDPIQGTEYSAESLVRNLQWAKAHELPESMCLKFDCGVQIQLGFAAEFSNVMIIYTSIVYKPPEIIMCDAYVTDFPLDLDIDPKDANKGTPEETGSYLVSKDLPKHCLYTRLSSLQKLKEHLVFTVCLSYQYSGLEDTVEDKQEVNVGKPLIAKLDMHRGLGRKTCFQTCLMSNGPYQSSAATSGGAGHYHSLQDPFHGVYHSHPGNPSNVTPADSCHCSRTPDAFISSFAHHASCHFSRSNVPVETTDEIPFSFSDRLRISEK

Broadly, the IC50 is the concentration that gives 50% inhibition. For the compound `Cl.N/C(=N\S(=O)(=O)c1ccccc1)NCc1cnc(-c2ccc(Cl)cc2)c(-c2ccc(Cl)cc2)c1` [Compound of Example 2, N-(amino(((5,6-bis(4-chlorophenyl)pyridin-3-yl)methyl)amino)methylene)benzenesulfonamide Hydrochloride], in assay [1], the half-inhibitory concentration (IC50) was 270 nM. Further, the figures for the “change in the thickness of the auricle (increase)” value in assay [2] (7.5 mg/kg orally twice a day), in assay [2] (15 mg/kg orally twice a day) and in assay [2] (30 mg/kg orally twice a day) were 179 μm, 131 μm and 118 μm, respectively. The “change in the thickness of the auricle compared to the vehicle administration group (in words)” value in assay [2] (15 mg/kg orally twice a day) and in assay [2] (30 mg/kg orally twice a day) was “significantly decreased” throughout.
